Laboratory results from publication PMC7221892, “In Vitro and in Vivo Activity of mTOR Kinase and PI3K Inhibitors Against Leishmania donovani and Trypanosoma brucei” (Molecules, 2020).
Several values for one entry are separate records, joined by “and”; a condition that tells them apart may be missing. Equal entries are not always repeated.

Key:
[1] = system: intracellular L. donovani; experiment: Pilot high-content screening against intracellular L. donovani at 10 μM; type: cell-based; details: screening concentration 10 µM
Method: (§1) PMA-treated THP-1 human monocytic cells were seeded at 0.8 × 10^4 cells per well in a 384-well culture plate (Greiner Bio-One, Kremsmünster, Austria) in RPMI-1640 complete medium supplemented with 10% FBS. After 48 h of incubation at 37 °C in the presence of 5% CO2, the promastigotes of L. donovani that were incubated with lectin for 30 min at 28 °C were added to the cells at a parasite to cell ratio of 20:1. […] The negative control consisted of THP-1 infected with the parasite with only 0.5% DMSO. After 72 h, the cells that were infected and treated with the drug were washed with serum-free RPMI-1640 medium. The cells and parasites were stained using 5 μM DRAQ5 and 4% PFA. The images were acquired based on reading using an Operetta® automated microscope (PerkinElmer, Inc., Waltham, MA 02451 USA). They were further analyzed using Columbus^TM (PerkinElmer, Inc. Waltham, MA, USA) software to quantify parasite numbers, host cell numbers, and infection ratios. In brief, large-sized nucleus of host cells was first detected using Draq-5 (Thermo Fisher, Rockford, IL, USA) signal and the host cell boundary masking was performed using the low-intensity signals from cytosols (additional feature of Draq-5). Then the small-sized nucleus signal by Draq-5 was used to identify parasites within the area of masked host cell. Infection ratio (IR) was determined with the value of the number of infected cells divided by total number of cells and the average number of parasites per macrophage (P/φ) was defined by the value of the number of parasites divided by the number of infected cells in the acquired image. The average IR value of the negative control wells was calculated as 0.53. Compounds selected based on the screening results were further assessed in a dose-dilution manner (two-fold serial dilution for 20 points starting from 100 μM) using the same method.

[2] = system: THP-1 cells; experiment: Host cell viability in pilot screening at 10 μM; type: cell-based, human; details: screening concentration 10 µM
Method: as §1, with “Infection ratio (IR) was determined with the value of the number of infected cells divided by total number of cells and the average number of parasites per macrophage (P/φ) was defined by the value of the number of parasites divided by the number of infected cells in the acquired image.” left out, “Compounds selected based on the screening results were further assessed in a dose-dilution manner (two-fold serial dilution for 20 points starting from 100 μM) using the same method.” left out

[3] = system: T. b. brucei Lister 427 BSF; experiment: T. b. brucei Lister 427 bloodstream form growth inhibition (resazurin); type: cell-based; details: Trypanosoma brucei, 72 h, 3 days exposure, read-out: T. brucei Lister 427 BSF EC50 ± SD
Method: (§2) L. donovani promastigote and T. b. brucei Lister 427 BSF growth inhibition were assayed by measuring the conversion of resazurin to resorufin. The assays were performed in 384-well plates that were seeded with L. donovani promastigotes or T. brucei 427 BSF (5 × 10^4 cells per well). After seeding, the parasites were exposed to the compounds for 3 days. Resazurin sodium salt (200 μM; R7017; Sigma-Aldrich, St. Louis, MO, USA) was then added, and the samples were incubated for 5 h. After incubation, the parasites were fixed using 4% paraformaldehyde, and the plates were analyzed using a Victor3^TM plate reader (PerkinElmer, Inc., Waltham, MA, USA) at 590 nm (emission) and 530 nm (excitation). […] Pentamidine was used for the T. b. brucei Lister 427 BSF growth inhibition assay.
(§3) All of the half maximal effective concentrations (EC50) and the half maximal cytotoxic concentrations (CC50) values were calculated using two independent experiments. The dose-response curves were fitted using GraphPad Prism 6 software (GraphPad Software, San Diego, CA, USA) by using a sigmoidal dose-response equation with a variable hill slope option.

[4] = system: intracellular L. donovani; experiment: Intracellular L. donovani in THP-1 cells, dose-dilution high-content imaging assay; type: cell-based; details: for EC50: Leishmania donovani, THP-1 cells infected with L. donovani, 72 h, duplicate measurements, read-out: Intracellular L. donovani EC50 ± SD
Method: as §1, with “image.” for “image. The average IR value of the negative control wells was calculated as 0.53. Compounds selected based on the screening results were further assessed in a dose-dilution manner (two-fold serial dilution for 20 points starting from 100 μM) using the same method.”
as §3

[5] = system: T. b. brucei Lister 427; experiment: HAT mouse model (acute T. b. brucei Lister 427 infection of BALB/c mice); type: in vivo; details: for parasitemia in T. brucei-infected mice: five consecutive days of treatment, Torin2 15 mg/kg, NVP-BGT226 5 mg/kg
Method: BALB/c mice were infected with T. b. brucei Lister 427 (4 × 10^4 cells) by intraperitoneal (i.p.) injection. […] Parasitemia was evaluated daily for 2 weeks by blood collection from the mouse tail vein, and survival was monitored for 1 month. Mice showing impaired health status and/or with a parasite load > 10^8 cells per mL of blood were euthanized.

[6] = system: L. donovani; experiment: VL mouse model (L. donovani-infected BALB/c mice); type: in vivo; details: miltefosine 30, Torin2 15, dactolisib 50, NVP-BGT226 5 mg/kg; for Inhibition of L. donovani In Vivo (%) (Mean ± SD): liver parasite burden vs vehicle, per os 5 days; for LDU in the Liver (Mean ± SD): once daily per os for 5 days from day 7 post-infection
Method: The highest dose for each compound without showing adverse effects was selected based on literature search. The vehicle for the compounds was 5% N-methylpyrrolidone, 15% polyvinylpyrrolidone, and 80% deionized water. Drug dosing solutions were freshly prepared each day. All drugs were administered once daily for 5 days via the per os route. On day 16 post-infection, all animals were humanely euthanized and assessed microscopically using Giemsa-stained liver imprints. Parasite burdens were measured by counting (blinded to treatment) the number of amastigotes per 1000 cell nuclei and multiplying this number by the liver weight (mg) (Leishman-Donovan Unit: LDU). The LDU values for the drug-treated samples were compared to those of the untreated samples, and the percent inhibition values were calculated.

[7] = system: L. donovani promastigotes; experiment: L. donovani promastigote growth inhibition (resazurin); type: cell-based; details: Leishmania donovani, 72 h, 3 days exposure, read-out: L. donovani Promastigote EC50 ± SD
Method: as §2, §3

[8] = Pilot toxicity study in mice; type: in vivo; details: 5 mg/kg dose
Method: For this proof of concept in vivo study, L. donovani infected BALB/c model was used to evaluate the ability of compound to reduce parasites in liver. […] Using the same dosing scheme, the efficacies of the compounds were evaluated in VL mouse model.

[9] = Host cell cytotoxicity (CC50) in infected THP-1 cells, dose-dilution assay; type: cell-based; details: human, infected THP-1 host cells, read-out: THP-1 Cell CC50 ± SD
Method: as §1, with “image.” for “image. The average IR value of the negative control wells was calculated as 0.53. Compounds selected based on the screening results were further assessed in a dose-dilution manner (two-fold serial dilution for 20 points starting from 100 μM) using the same method.”
as §3

| SMILES | inhibition of intracellular parasite survival in screening [1] | toxicity against the host cell in screening [2] | EC50 [3] | EC50 [4] | mice surviving at least 13 days after infection ([5]; 15 mg/kg per os for 5 days) | parasitemia in T. brucei-infected mice [5] | Inhibition of L. donovani In Vivo (%) (Mean ± SD) [6] | LDU in the Liver (Mean ± SD) [6] | EC50 [7] | toxicity in vivo [8] | Selectivity Index (SI) ([4]; SI = THP-1 CC50/Intracellular L. donovani EC50) | mice surviving during 14 days post-infection ([5]; 5 mg/kg per os for 5 days) | mice surviving more than 25 days without parasitemia ([5]; 5 mg/kg per os for 5 days) | delay in survival over the Torin2-treated group ([5]; NVP-BGT226 5 mg/kg vs Torin2 15 mg/kg) | Inhibition of L. donovani In Vivo (%) (Mean ± SD) ([6]; 5 mg/kg) | CC50 at 72 h [9] |
| --- | --- | --- | --- | --- | --- | --- | --- | --- | --- | --- | --- | --- | --- | --- | --- | --- |
| COc1ncc(-c2ccc3nccc(-c4ccnnc4)c3c2)cc1NS(=O)(=O)c1ccc(F)cc1F [GSK2126458] | found active | some toxicity against the host cell |  |  |  |  |  |  |  |  |  |  |  |  |  |  |
| Nc1ccc(-c2ccc3ncc4ccc(=O)n(-c5cccc(C(F)(F)F)c5)c4c3c2)cn1 [Torin2, 9-(6-Aminopyridin-3-yl)-1-(3-(trifluoromethyl)phenyl)benzo[h][1,6]naphthyridin-2(1H)-one] |  |  | 110 ± 10 nM | 250 ± 30 nM | 80% | parasitemia was observed still by day 5 | 35% and 35 ± 5.81% | 735 ± 66 LDU | 30 ± 4 nM |  |  |  |  |  |  |  |
| COc1ccc(-c2ccc3ncc4c(c3c2)n(-c2ccc(N3CCNCC3)c(C(F)(F)F)c2)c(=O)n4C)cn1 [NVP-BGT226] |  |  | 0.054 ± 0.003 nM | 140 ± 20 nM |  | reduced to under the limits of detection |  | 516 ± 36 LDU | 9 ± 1 nM | no sign of toxicity was observed | 19 | 80% | 20% | 1 to 2 days | 54% and 54 ± 3.18% | 2660 ± 460 nM |
